Measurements: ChEMBL document CHEMBL1140142, “Myxochromide B3, a new member of the myxochromide family of secondary metabolites” (J Nat Prod, 2008)
Calls of active or inactive are those of the source.

How the values were obtained:
Assay type in all cases: functional, organism-based
[1] = system: Priestia megaterium; test: Antimicrobial activity against Bacillus megaterium at 50 ug/disk by disk diffusion assay
[2] = system: Escherichia coli; test: Antimicrobial activity against Escherichia coli at 50 ug/disk by disk diffusion assay
[3] = system: Aspergillus ruber; test: Antimicrobial activity against Eurotium rubrum at 50 ug/disk by disk diffusion assay
[4] = system: Microbotryum violaceum; test: Antimicrobial activity against Microbotryum violaceum at 50 ug/disk by disk diffusion assay
[5] = system: Mycotypha microspora; test: Antimicrobial activity against Mycotypha microspora at 50 ug/disk by disk diffusion assay
[6] = system: [Chlorella] fusca; test: Antimicrobial activity against Chlorella fusca at 50 ug/disk by disk diffusion assay; conditions: Scenedesmus fuscus

Measured: Activity

C/C=C/C=C/C=C/C=C/C=C/C=C/C=C/C=C/C(=O)N(C)[C@@H]1C(=O)N[C@H](C)C(=O)N[C@@H](CC(C)C)C(=O)N2CCC[C@H]2C(=O)N[C@@H](C)C(=O)N[C@@H](CCC(N)=O)C(=O)O[C@@H]1C
inactive: [1] | [2] | [3] | [4] | [5] | [6]

C/C=C/C=C/C=C/C=C/C=C/C=C/C=C/C=C/C(=O)N(C)[C@@H]1C(=O)N[C@H](C)C(=O)N[C@@H](CC(C)C)C(=O)N[C@@H](CC(C)C)C(=O)N2CCC[C@H]2C(=O)N[C@@H](C)C(=O)N[C@@H](CCC(N)=O)C(=O)O[C@@H]1C
inactive: [1] | [2] | [3] | [4] | [5] | [6]
